According to patent publication US7439343B2, “Aminoglycoside-polyamine displacers and methods of use in displacement chromatography” (Rensselaer Polytechnic Institute, priority 2005, dated 2008):

Experiments:
DNA = assay: Ethidium bromide displacement assay (DNA binding); design: species or system calf; conditions: 96-well format
From the text: A method for condensing DNA comprising combining the DNA with at least one of the aforementioned derivatives of a carbohydrate compound wherein the DNA is bound to the carbohydrate compound is presented in accordance with the present invention. FIG. 3 depicts a graph of DNA binding efficacy of the displacer candidates in an embodiment of the present invention. The Y axis is % fluorescence decreased and the X axis is the carbohydrate derivative evaluated.
Referring to FIG. 3, an ethidium bromide displacement assay was employed to evaluate the DNA-binding affinity of carbohydrate derivatives in a 96-well format. Using this screen, the percent fluorescence decreased was used as a parameter to rank the DNA-binding efficacy of the various compounds.

[1] = biological target: horse cytochrome-C on HP Sepharose SP; assay: Batch displacement assay, cytochrome-C on HP Sepharose SP; type: binding; conditions: input displacer concentration displacing 50% of bound protein; 50 mM phosphate, pH 6.0
From the text: (§1) A modified batch displacement assay was used to investigate displacer efficacy of the carbohydrate derivatives over a wide range of concentrations. The carbohydrate derivatives from hereon will be referred to as the displacer candidates unless otherwise specified. Different input concentrations of the displacer candidates were employed to determine the DC50 value, which is the input displacer concentration required to displace fifty percent of the initially bound protein. The lower the DC50 value the more efficacious is the displacer candidate.
(§2) Table 1 is of displacer candidates and their respective DC50 values of horse cytochrome-C on HP Sepharose SP and Source 15S cation exchange resins in accordance with the present invention. Column 201 is the displacer candidate evaluated. Column 202 is DC50 values of horse cytochrome-C on HP Sepharose SP. Column 203 is the DC50 values of horse cytochrome-C on Source 15S cation exchange resin. The above approach was employed to determine the DC50 values of the displacer candidates for the displacement of horse cytochrome-C on HP Sepharose SP and Source 15S cation exchange resins at pH 6.0.
(§3) The bulk stationary phase (HP Sepharose SP or Source 15S) was first washed once with de-ionized water and then three times with the buffer, (50 mM phosphate, pH 6.0) and allowed to equilibrate for 2 hours. After gravity-settling of the stationary phase, the supernatant was removed and 3.0 mL of the remaining stationary phase slurry was equilibrated with 36 ml containing 3 mg/ml of the protein (horse heart cytochrome-C or chicken egg lysozyme) in 50 mM phosphate buffer, pH 6.0, at 20° C.
(§4) The protein was equilibrated with the resin for five hours in order to attain complete equilibration during which, the stationary phase was allowed to gravity-settle. Upon settling, the supernatant was removed and the protein content in the supernatant was determined using absorbance detection at 280 or 405 nm using a plate reader. The mass of the protein adsorbed on the stationary phase was determined by mass balance.
(§5) For the screening experiments, 300 μL of different initial concentrations (ranging from 0.3 to 5 mM) of a displacer solution was added to 25 μL aliquots of the stationary phase slurry with bound protein. (note: a different displacer candidate and concentration were employed for each vial to enable parallel screening). The system was equilibrated for 5 h. After equilibrium was achieved, the supernatant was removed and the protein content was determined by absorbance detection at 280 or 405 nm using a plate reader.
(§6) The percent protein displaced, was calculated for each aliquot based on the protein mass balance and the data was plotted as a function of the initial displacer concentration. The resulting plots were then employed to determine the initial displacer concentration required to displace fifty percent of the adsorbed protein (i.e. the DC50).

[2] = biological target: horse cytochrome-C on Source 15S cation exchange resin; assay: Batch displacement assay, cytochrome-C on Source 15S; type: binding; conditions: input displacer concentration displacing 50% of bound protein; 50 mM phosphate, pH 6.0
From the text: as §1
as §2, with “Column” for “Table 1 is of displacer candidates and their respective DC50 values of horse cytochrome-C on HP Sepharose SP and Source 15S cation exchange resins in accordance with the present invention. Column”
The influence of the stationary phase on displacer affinity was investigated using a second strong cation exchange resin, Source 15S.
as §3, §4, §5, §6

[3] = system: chicken-egg lysozyme adsorbed on HP Sepharose SP; assay: Batch displacement assay, lysozyme on HP Sepharose SP; type: binding; conditions: displacer concentration 2.5 mM
Protocol: FIG. 2 depicts a graph comparing the % lysozyme and % cytochrome-C displaced on HP Sepharose SP in accordance with the present invention. The Y axis is % protein displaced. The X axi is the displacer candidate evaluated. The displacer candidate concentration is 2.5 mM in an embodiment of the present invention. In order to evaluate the displacer candidates with another protein, experiments were carried out with chicken-egg lysozyme adsorbed on HP Sepharose SP. Referring to FIG. 2, a comparison of the percent protein displaced for both lysozyme and cytochrome-C at displacer concentrations of 2.5 mM is shown. The data is arranged in increasing order of percent lysozyme displaced. […] Upon settling, the supernatant was removed and the protein content in the supernatant was determined using absorbance detection at 280 or 405 nm using a plate reader. The mass of the protein adsorbed on the stationary phase was determined by mass balance. […] After equilibrium was achieved, the supernatant was removed and the protein content was determined by absorbance detection at 280 or 405 nm using a plate reader. The percent protein displaced, was calculated for each aliquot based on the protein mass balance and the data was plotted as a function of the initial displacer concentration. […]

% fluorescence decreased (DNA) | DC50 [1] [µM] | DC50 [2] [µM] | DC50-Cytochrome C on Source 15S [2] | SMILES | DC50-Cytochrome C on HP Sepharose SP [1] | percent protein displaced (lysozyme) [3] [%]
relatively low efficacies | 7700 ± 1440 | 5800 ± 440 |  | NCCCCNCCCN [Spermidine, spermidine, reference compound] |  | 
 | 2000 ± 150 | 1700 ± 20 |  | NCCNC(=O)NCC1OC(OC2C(NC(=O)NCCN)CC(NC(=O)NCCN)C(OC3OC(CO)C(O)C(NC(=O)NCCN)C3O)C2O)C(O)C(O)C1O (stereo not drawn) [23a] |  | 
 | 20200 ± 2670 | 17600 ± 2150 |  | NCCN [Ethylenediamine, ethylenediamine, reference compound] |  | 
 | 2300 | 1100 ± 140 |  | NCCCNCCCCNCCCNC(=O)Nc1ncnc2c1ncn2C1CC(OC(=O)NCCCNCCCCNCCCN)C(COC(=O)NCCCNCCCCNCCCN)O1 (stereo not drawn) [compound 11] |  | 
 | 12300 ± 250 | 12900 ± 1460 |  | NCCCNCCCCNCCCNC(=O)OC1CC(n2cnc3c(N)ncnc32)OC1CO (stereo not drawn) [compound 9] |  | 
relatively low efficacies | 4800 | 4300 ± 640 |  | NCCCNCCCCNCCCN [Spermine, spermine, reference compound] |  | 
 | 3600 | 800 | sub-millimolar | COC1OC(COC(=O)NCCCNCCCCNCCCN)C(O)C(O)C1NC(=O)NCCCNCCCCNCCCN (stereo not drawn) [4b] |  | 
 | 2800 ± 200 | 800 | sub-millimolar | NCCCNCCCCNCCCNC(=O)NC1C(OCc2ccccc2)OC(COC(=O)NCCCNCCCCNCCCN)C(O)C1O (stereo not drawn) [4d] |  | 
 | 1300 | 800 | sub-millimolar | NCCCNCCCCNCCCNC(=O)NC1C(OCc2ccccc2)OC(COC(=O)NCCCNCCCCNCCCN)C(O)C1O (stereo not drawn) [4c] |  | 
 | 1900 ± 10 | 1900 ± 60 |  | NCCNC(=O)NCC1OC(OC2C(NC(=O)NCCN)CC(NC(=O)NCCN)C(OC3OC(CO)C(O)C(NC(=O)NCCN)C3O)C2O)C(N)C(O)C1O (stereo not drawn) [compound 24] |  | 
relatively low efficacies | 6200 ± 370 | 3100 ± 2290 |  | NC[C@H]1O[C@H](O[C@H]2[C@H](O)[C@@H](O[C@H]3O[C@H](CO)[C@@H](O)[C@H](N)[C@H]3O)[C@H](N)C[C@@H]2N)[C@H](N)[C@@H](O)[C@@H]1O [Bekanamycin, bekanamycin, reference compound] |  | 
 | 10800 ± 190 | 14400 ± 3670 |  | NCCNCCN [Diethylenetriamine, diethylenetriamine, reference compound] |  | 
relatively low efficacies | 2800 | 1700 ± 20 |  | NCC1OC(OC2C(CO)OC(OC3C(O)C(N)CC(N)C3OC3OC(CN)C(O)C(O)C3N)C2O)C(N)C(O)C1O (stereo not drawn) [Neomycin, neomycin, reference compound] |  | 
 | 2800 | 900 | sub-millimolar | NCCCNCCCCNCCCNC(=O)NC1C(O)OC(COC(=O)NCCCNCCCCNCCCN)C(O)C1O (stereo not drawn) [4a] |  | 
 | 11700 ± 100 | 6200 ± 460 |  | NCCCNCCCCNCCCNC(=O)OCC1OC(n2cnc3c(N)ncnc32)CC1O (stereo not drawn) [compound 7] |  | 
 | 1600 | 1300 ± 90 |  | NCCNC(=O)NCC1OC(OC2C(CO)OC(OC3C(O)C(NC(=O)NCCN)CC(NC(=O)NCCN)C3OC3OC(CNC(=O)NCCN)C(O)C(O)C3NC(=O)NCCN)C2O)C(NC(=O)NCCN)C(O)C1O (stereo not drawn) [14a] | highest affinity among the neomycin derivatives | 

SMILES | % fluorescence decreased (DNA) | DC50 [1] [µM] | DC50 [2] [µM] | DC50-Cytochrome C on Source 15S [2] | DC50-Cytochrome C on HP Sepharose SP [1] | percent protein displaced (lysozyme) [3] [%]
COC1OC(CO)C(OC2OC(CNC(=O)NCCCNCCCCNCCCN)C(O)C(O)C2NC(=O)NCCCNCCCCNCCCN)C1O (stereo not drawn) [20b] |  | 1100 | 800 ± 40 | sub-millimolar |  | 
COC1OC(CO)C(OC2OC(CNC(=O)NCCNCCN)C(O)C(O)C2NC(=O)NCCNCCN)C1O (stereo not drawn) [20a] |  | 9400 ± 2650 | 4800 ± 30 |  |  | 
NCCCNCCCCNCCCNC(=O)NCC1OC(OC2C(NC(=O)NCCCNCCCCNCCCN)CC(NC(=O)NCCCNCCCCNCCCN)C(OC3OC(CO)C(O)C(NC(=O)NCCCNCCCCNCCCN)C3O)C2O)C(O)C(O)C1O (stereo not drawn) [23c, kanamycin A tetraspermine] |  | 1000 | 900 |  | sub-millimolar | 
NCCCNCCCCNCCCNC(=O)NCC1OC(OC2C(NC(=O)NCCCNCCCCNCCCN)CC(NC(=O)NCCCNCCCCNCCCN)C(O)C2O)C(NC(=O)NCCCNCCCCNCCCN)C(O)C1O (stereo not drawn) [17b, neamine tetraspermine] |  | 700 | 600 |  | sub-millimolar | 52.8
NCCNC(=O)NCC1OC(OC2C(NC(=O)NCCN)CC(NC(=O)NCCN)C(O)C2O)C(NC(=O)NCCN)C(O)C1O (stereo not drawn) [17a] |  | 2100 | 2300 ± 40 |  |  | 
NC[C@H]1O[C@H](O[C@H]2[C@H](O)[C@@H](O)[C@H](N)C[C@@H]2N)[C@H](N)[C@@H](O)[C@@H]1O [Neamine, neamine, reference compound] |  | 5600 | 4900 ± 1670 |  |  | 
